# Test results published in patent US20260273107A1, “COMPOUND PHARMACEUTICAL PREPARATION CONTAINING OIL COMPONENT COMPRISING POLYOXYETHYLENE STRUCTURE” (CHUGAI SEIYAKU KABUSHIKI KAISHA, priority 2022, published 2026).
# Read-outs that look alike come from different tables or passages of the source. Numbered stars: 1 amine (or outer) side, 2 acyl side, 3 side chain; on linkers, the order of the positions; unused ones are H or OH. Bridge positions count the residues as written; N and C are the ends. Square brackets hold non-standard residues; d marks the D form. Peptide text beside a SMILES is read from it. * marks the point of attachment. hPhe(3-Cl-4-CF3) = N[C@@H](CCc1ccc(C(F)(F)F)c(Cl)c1)C(=O)O; X1 = CN(C(CC(=O)[*:2])C(=O)C1CCCCC1)[*:1]; NMeGly(cPent) = CN[C@H](C(=O)O)C1CCCC1; Bta = N[C@@H](Cc1csc2ccccc12)C(=O)O; NMeCha = CN[C@@H](CC1CCCCC1)C(=O)O; NMeChg = CN[C@H](C(=O)O)C1CCCCC1; NMeF = CN[C@@H](Cc1ccccc1)C(=O)O; NMeD = CN[C@@H](CC(=O)O)C(=O)O; NMeL = CN[C@@H](CC(C)C)C(=O)O; NMeV = CN[C@H](C(=O)O)C(C)C; NMeAbu = CC[C@H](NC)C(=O)O; NMeA = CN[C@@H](C)C(=O)O; Piperidide = C1CCN(*)CC1; Ac5c = NC1(C(=O)O)CCCC1; Aze = O=C(O)[C@@H]1CCN1; Sar = CNCC(=O)O; tBu = CC(C)(C)*
# Columns and labels:
# [1] = Evaluation of Caco-2 membrane permeability; format: in vitro ADME; conditions: human, Apical FaSSIF/HBSS pH 6.0 to Basal HBSS 4% BSA pH 7.4, 180 minutes, after 18 to 24 hours preincubation, read-out: Caco2 (Papp)
# Experimental: The permeability coefficient (Caco-2 Papp (cm/sec)) is calculated using a numerical expression 1.
# [formula] • where dQ/dt is the permeation rate of the drug (amount of drug appearing on the Basal side per unit time), S is the total cell surface area, and C1 (0) is the concentration of drug added on the Apical side.
# Caco-2 cells were cultured on 96-well Transwell for 3 weeks, then DMEM, FaSSIF (1% DMSO), and the compound were added to the Apical side, DMEM was added to the Basal side, and the cells were preincubated under 5% CO2 at 37° C. with shaking at 80 rpm for 18 to 24 hours. After the preincubation, the preincubation solutions on the Apical side and Basal side were sucked off and washed, a FaSSIF/HBSS buffer solution (1% DMSO) (pH 6.0) containing the compound was added to the Apical side, a HBSS buffer solution (4% BSA) (pH 7.4) was added to the Basal side, and measurement of membrane permeability was started. Each well was shaken under 5% CO2 at 37° C. and 80 rpm, and at 180 minutes after the start of shaking, a sample on the Basal side was collected, and the permeation amount was measured by LC/MS. From the permeation amount, the membrane permeability coefficient (Papp) was calculated. Note that the description “Caco-2 (cm/sec)” in the column in the table herein is used synonymously with “Papp (cm/sec)”.
# [2] = Solubility in aqueous solution containing 0.3% or 1% Cremophor EL (Example 3-3); format: physicochemical; conditions: 25° C., 22 to 24 hours
# Experimental: Evaluation of the solubility of the cyclic peptide compound in the presence of a surfactant was performed. To lyophilized powder of the compound, an aqueous solution containing 0.3% or 1% Cremophor EL (CreEL) was added, and after shaking (at 25° C., 1000 rpm, for 22 to 24 hours), the mixed solution was filtered through a filter, and the compound concentration of the filtrate was measured by LC/UV. Solubility (μg/mL) was calculated from the measured compound concentration.
# [3] = In vitro solubility evaluation in 50 mM phosphate buffer solution (PPB, pH 6.5), room temperature (Example 2-1); format: physicochemical; conditions: 50 mM phosphate buffer pH 6.5, room temperature, shaking 24 hours, no surfactant; read-out: solubilities, PPb
# Experimental: (§1) To lyophilized powder of the compound, a 50 mM phosphate buffer solution (PPB: Phosphate buffer, pH 6.5) was added, and after shaking (at room temperature, 1800 rpm, for 24 hours), the mixed solution was filtered through a filter, and the compound concentration of the filtrate was measured by LC/MS/MS. […] To the compound powder, Cremophor EL (CreEL) (manufactured by Sigma-Aldrich Co., Ltd., “Kolliphor EL”, generic name: polyoxyethylene castor oil, average number of moles of ethylene oxide added 35), Vitamin E TPGS (manufactured by Sigma-Aldrich Co., Ltd.), an aqueous solution containing 1% TW80 (manufactured by Nacalai Tesque, Inc.), an aqueous solution containing 1.5% Ploxamer 188 (manufactured by BASF SE), or an aqueous solution containing 0.5% Triton X-100 was added, the mixed solution was stirred (at room temperature, for 20 hours) with a stirrer, and then filtered through a filter, and the compound concentration of the filtrate was measured by LC/UV. Solubility (μg/mL) was calculated from the measured compound concentration. […] From the above, CreEL and Vitamin E TPGS were selected as substrates that improve solubility independently of compounds, and evaluation of oral absorbability was performed.
# [4] = Solubility in the presence of a surfactant (Example 2-1); format: physicochemical; conditions: room temperature, stirred 20 hours
# Experimental: as §1
# [5] = Solubility of cyclic peptide compound in 50 mM phosphate buffer solution (pH 6.5), 37° C. (Example 3-3); format: physicochemical; conditions: shaking 22 to 24 hours, read-out: solubility in 50 mM phosphate buffer solution (PPB)
# Experimental: Evaluation of the solubility of the cyclic peptide compound was performed. To lyophilized powder of the compound, a 50 mM phosphate buffer solution (PPB: Phosphate buffer, pH 6.5) was added, and after shaking (at 37° C., 1800 rpm, for 22 to 24 hours), the mixed solution was filtered through a filter, and the compound concentration of the filtrate was measured by LC/MS/MS. Solubility was calculated from the measured compound concentration. The solubilities of the compounds 3, 4, 6, 7, and 8 were 11 μg/mL, 1 μg/mL, 1 μg/mL, 15 μg/mL, and 5 μg/mL, respectively.
# [6] = 0.3% Cremophor EL aqueous solution, read-out: solubility, 0.3% Cremophor EL
# [7] = 1% Cremophor EL aqueous solution, read-out: solubility, 1% Cremophor EL
Compound,Papp A→B at 180 min [1] [×10⁻⁶ cm/s],"solubility [2, 6] [µg/mL]","solubility [2, 7] [µg/mL]",solubility at 24 h [3] [µg/mL],"solubility at 20 h ([4]; 0.5% Triton X-100 aqueous solution, read-out: solubilities, TritonX-100 (0.5% aqueous solution)) [µg/mL]","solubility at 20 h ([4]; 1% Cremophor EL aqueous solution, read-out: solubilities, CreEL (1% aqueous solution)) [µg/mL]","solubility at 20 h ([4]; 1% TW80 aqueous solution, read-out: solubilities, TW80 (1% aqueous solution)) [µg/mL]","solubility at 20 h ([4]; 1% Vitamin E TPGS aqueous solution, read-out: solubilities, VitaminE TPGS (1% aqueous solution)) [µg/mL]","solubility at 20 h ([4]; 1.5% Poloxamer 188 aqueous solution, read-out: solubilities, Poloxamer 188 (1.5% aqueous solution)) [µg/mL]",solubility [5] [µg/mL]
CCO[C@@H]1C[C@H]2C(=O)NC3(CCC3)C(=O)N(C)[C@@H](C3CCCC3)C(=O)N(C)[C@H](C(=O)N(C)C)CC(=O)N(C)[C@@H](CC)C(=O)N[C@@H]([C@@H](C)CC)C(=O)N(C)CC(=O)N(C)[C@H]3C/C=C\CCN(C3=O)[C@@H](Cc3ccc(C(F)(F)F)cc3)C(=O)N(C)CC(=O)N[C@@H](CCc3cc(F)c(C(F)(F)F)c(F)c3)C(=O)N2C1 [Compound 10],0.7,583,1680,,,,,,,
CC[C@H](C)[C@@H]1NC(=O)[C@H](CC(C)C)N(C)C(=O)CC(C(=O)C2CCCCC2)N(C)C(=O)[C@H](C2CCCCC2)N(C)C(=O)C2(CCCC2)NC(=O)[C@@H]2CCCN2C(=O)[C@H](CCc2ccc(C(F)(F)F)c(Cl)c2)NC(=O)CN(C)C(=O)[C@H](CC2CCCCC2)N(C)C(=O)CN(C)C(=O)CN(C)C1=O (stereo partly drawn) [Compound 1] (cyclo([Ac5c][NMeChg][X1][NMeL]I[Sar][Sar][NMeCha][Sar][hPhe(3-Cl-4-CF3)]P)),0.71,,,1,743,3380,1270,3100,< 13,
CC[C@H](C)[C@@H]1NC(=O)[C@H](CC(C)C)N(C)C(=O)C[C@@H](C(=O)N2CCCCC2)N(C)C(=O)[C@H](C2CCCC2)N(C)C(=O)C2(CCCC2)NC(=O)[C@@H]2CCCN2C(=O)[C@H](CCc2ccc(C(F)(F)F)c(Cl)c2)NC(=O)CN(C)C(=O)[C@H](CC2CCCCC2)N(C)C(=O)[C@@H]2CCN2C(=O)[C@H](C)N(C)C1=O [Compound 6] ([NMeL]I[NMeA][Aze][NMeCha][Sar][hPhe(3-Cl-4-CF3)]P[Ac5c][NMeGly(cPent)][NMeD]-Piperidide; lactam N-11),0.61,434,1450,,,,,,,1
CC(C)C[C@@H]1NC(=O)[C@H](Cc2ccccc2)N(C)C(=O)[C@@H](C(C)C)NC(=O)C[C@@H](C(=O)N2CCCCC2)NC(=O)[C@H](C(C)C)N(C)C(=O)[C@H](Cc2ccccc2)N(C)C(=O)[C@H](COC(C)(C)C)NC(=O)[C@H](CC(C)C)N(C)C(=O)CN(C)C(=O)[C@H]([C@@H](C)O)NC(=O)[C@H](CC(C)C)N(C)C1=O [Compound 3] ([dV][NMeF]L[NMeL]T[Sar][NMeL]S(tBu)[NMeF][NMeV]D-Piperidide; lactam N-11),4.07,101,395,,,,,,,11
CC[C@H]1C(=O)N[C@@H](COC(C)(C)C)C(=O)N(C)[C@@H](Cc2ccccc2)C(=O)N(C)[C@@H](C)C(=O)N[C@H](C(=O)N2CCCCC2)CC(=O)N[C@H](CC(C)C)C(=O)N(C)[C@@H](CC(C)C)C(=O)N[C@@H](Cc2csc3ccccc23)C(=O)N(C)[C@@H](CC(C)C)C(=O)N[C@@H]([C@@H](C)O)C(=O)N(C)CC(=O)N1C [Compound 5] ([dL][NMeL][Bta][NMeL]T[Sar][NMeAbu]S(tBu)[NMeF][NMeA]D-Piperidide; lactam N-11),1.42,295,1110,,,,,,,
